Source: patent publication US7053178B2, “Synthetic peptides and kits for diagnosis of anti-phospholipid syndrome” (Yeda Research Development Co., LTD, priority 1998, dated 2006)
Where no end group is shown, it is not given here.

Experiments:
anti-β2GPI mAb G-3 = experiment: ELISA binding of G-3 mAb to phage-displayed hexapeptides; parameters: species or system human; scale not given here; conditions: G-3 mAb 5 μg/ml, 10^9 phage particles/well, O.D. at 405 nm
Method: (§1) (a) Epitope Library. The hexapeptide epitope library was kindly provided by George P. Smith (University of Missouri, Columbia, MO) and was constructed by use of the phage fd-derived vector fUSE5 as described (Scott and Smith, 1990). This library consists of 2×10^8 original phage clones each containing a hexapeptide fused to the minor coat protein PIII (Scott and Smith, 1990). (b) Anti-β2GPI mAbs. The human anti-β2GPI mAbs named ILA-1, ILA-3 and G-3 (IgM), were prepared by human-human hybridoma technique from PBL of an APS patient as described (George et al., 1998). Briefly, peripheral blood cells (PBL) were separated from whole blood by Ficoll-Hypaque gradient, the PBL were exposed to pokeweed mitogen for 5 days in order to enrich the B cell population and the lymphocytes were fused with the human lymphoblastoid cell line GM4672 in the presence of polyethyleneglycol (PEG 1500). After fusion, the cells were seeded into 96-well tissue culture plates with RPMI 1640, 10% FCS and hypoxanthine-aminopterin-thymidine (HAT) selection media. New clones were detected after 4–5 weeks, grown and screened for binding to β2GPI by ELISA. All clones were subjected 4 times to limiting dilution cloning procedures in regular medium. […] The hexapeptide epitope library of section (a) above was used as described (Scott and Smith, 1990). Briefly, a library sample containing 3.8×10^9 infectious phage particles was subjected to three rounds of selection (panning) and amplification. For each selection cycle a biotinylated mAb prepared as described in section (b) above (10 μg in the first panning and 1 μg for the others) was added in a total volume of 50 μl. The phages were preincubated with the biotinylated mAb overnight at 4° C., and the reaction mixtures were then layered in 1 ml PBS on streptavidin-coated 30-mm polystyrene petri dishes (Nunc, Kamstrup, Roskilde, Denmark) for 30 min at room temperature. Unbound phages were removed by extensive washings in PBS, and the remaining phages were eluted with 0.1M glycine-HCl, pH 2.2, and neutralized with Tris 1M. […]

anti-β2GPI mAb ILA-3 = experiment: ELISA binding of ILA-3 mAb to phage-displayed hexapeptides; parameters: species or system human; scale not given here; conditions: ILA-3 mAb 5 μg/ml, 10^9 phage particles/well, O.D. at 405 nm
Method: as §1, with “1990).” for “1990). Briefly, a library sample containing 3.8×10^9 infectious phage particles was subjected to three rounds of selection (panning) and amplification. For each selection cycle a biotinylated mAb prepared as described in section (b) above (10 μg in the first panning and 1 μg for the others) was added in a total volume of 50 μl. The phages were preincubated with the biotinylated mAb overnight at 4° C., and the reaction mixtures were then layered in 1 ml PBS on streptavidin-coated 30-mm polystyrene petri dishes (Nunc, Kamstrup, Roskilde, Denmark) for 30 min at room temperature. Unbound phages were removed by extensive washings in PBS, and the remaining phages were eluted with 0.1M glycine-HCl, pH 2.2, and neutralized with Tris 1M.”

anti-β2GPI mAb ILA-1 = experiment: ELISA binding of ILA-1 mAb to phage-displayed hexapeptides; parameters: species or system human; conditions: ILA-1 mAb 5 μg/ml, 10^9 phage particles/well, O.D. at 405 nm
Method: as §1, with “1990).” for “1990). Briefly, a library sample containing 3.8×10^9 infectious phage particles was subjected to three rounds of selection (panning) and amplification. For each selection cycle a biotinylated mAb prepared as described in section (b) above (10 μg in the first panning and 1 μg for the others) was added in a total volume of 50 μl. The phages were preincubated with the biotinylated mAb overnight at 4° C., and the reaction mixtures were then layered in 1 ml PBS on streptavidin-coated 30-mm polystyrene petri dishes (Nunc, Kamstrup, Roskilde, Denmark) for 30 min at room temperature. Unbound phages were removed by extensive washings in PBS, and the remaining phages were eluted with 0.1M glycine-HCl, pH 2.2, and neutralized with Tris 1M.”

Substance	Binding O.D. (anti-β2GPI mAb G-3) [O.D.]	Binding O.D. (anti-β2GPI mAb ILA-1) [O.D.]	other results
TLLRVY [T L L R V Y]	869 ± 71	–	–
TKLRVY [T K L R V Y]	954 ± 62	–	–
TLRVYK [T L R V Y K]	791 ± 33	–	–
KDKATF [K D K A T F]	–	–	Binding O.D. (anti-β2GPI mAb ILA-3): 1178 ± 101 O.D.
LKTPRV [L K T P R V]	–	975 ± 72	–
KTPRVT [K T P R V T]	–	1201 ± 142	–
